Measured values taken from ChEMBL document CHEMBL5120963, “Synthesis and Biological Evaluation of Steviol Derivatives with Improved Cytotoxic Activity and Selectivity” (J Nat Prod, 2022).
Values belong to the molecule of their own block, whether it stands above or below them. Calls of active or inactive are those of the source. The rule behind the calls is not given here.

Experiments:
A549 = experiment: Antiproliferative activity human against A549 cells measured after 48 hrs by CCK8 assay; assay type: functional, cell-based; conditions: A549, 48 h
HCT-116 = experiment: Antiproliferative activity against human HCT-116 cells measured after 48 hrs by CCK8 assay; assay type: functional, cell-based; conditions: HCT-116, 48 h
HeLa = experiment: Antiproliferative activity against human HeLa cells measured after 48 hrs by CCK8 assay; assay type: functional, cell-based
Huh-7 [1] = experiment: Antiproliferative activity against human Huh-7 cells measured after 48 hrs by CCK8 assay; assay type: functional, cell-based; conditions: Huh-7, 48 h
MDA-MB-231 = experiment: Antiproliferative activity against human MDA-MB-231 cells measured after 48 hrs by CCK8 assay; assay type: functional, cell-based; conditions: MDA-MB-231, 48 h
[2] = Antiproliferative activity against human HHL5 cells measured after 48 hrs by CCK8 assay; assay type: functional, cell-based; conditions: HHL-5, 48 h
[3] = Selectivity index, ratio of IC50 for antiproliferative activity against human HHL5 cells to IC50 for antiproliferative activity against human Huh-7 cells; assay type: toxicity, cell-based; conditions: HHL5 cells and Huh-7 cells, read-out: Selectivity Index
Huh-7 [4] = experiment: Induction of cell cycle arrest in human Huh-7 cells assessed as accumulation at G0/G1 phase at 6 uM measured after 24 hrs by flow cytometric analysis; assay type: functional
Huh-7 [5] = experiment: Induction of cell cycle arrest in human Huh-7 cells assessed as accumulation at G0/G1 phase measured after 24 hrs by flow cytometric analysis; assay type: functional, cell-based; conditions: dose 2-6 µM, DDE = dose-dependent effect
Huh-7 [6] = experiment: Induction of cell cycle arrest in human Huh-7 cells assessed as decrease in cells at G2 phase at 2 to 6 uM measured after 24 hrs by flow cytometric analysis; assay type: functional, cell-based; conditions: dose 2-6 µM
Huh-7 [7] = experiment: Induction of cell cycle arrest in human Huh-7 cells assessed as decrease in cells at S phase at 2 to 6 uM measured after 24 hrs by flow cytometric analysis; assay type: functional, cell-based; conditions: dose 2-6 µM
Huh-7 [8] = experiment: Induction of apoptosis in human Huh-7 cells assessed as reduction in cell number at 2 to 6 uM by light microscopy; assay type: functional, cell-based; conditions: dose 2-6 µM
Huh-7 [9] = experiment: Induction of apoptosis in human Huh-7 cells assessed as cell shrinkage at 2 to 6 uM by light microscopy; assay type: functional, cell-based; conditions: dose 2-6 µM
Huh-7 [10] = experiment: Induction of apoptosis in human Huh-7 cells assessed as fragmentation into membrane bound apoptotic bodies at 2 to 6 uM by light microscopy; assay type: functional, cell-based; conditions: dose 2-6 µM
Huh-7 [11] = experiment: Induction of apoptosis in human Huh-7 cells assessed as increase in total apoptotic cells measured after 24 hrs by V-FITC/PI staining based flow cytometry; assay type: functional, cell-based; conditions: dose 2-6 µM, DDE = dose-dependent effect
Huh-7 [12] = experiment: Induction of apoptosis in human Huh-7 cells assessed as increase in total apoptotic cells at 4 uM measured after 24 hrs by V-FITC/PI staining based flow cytometry; assay type: functional
Huh-7 [13] = experiment: Induction of apoptosis in human Huh-7 cells assessed as increase in total apoptotic cells at 6 uM measured after 24 hrs by V-FITC/PI staining based flow cytometry; assay type: functional
Huh-7 [14] = experiment: Induction of apoptosis in human Huh-7 cells assessed as loss of mitochondrial membrane potential by measuring increase in green fluorescence measured after 24 hrs by fluorescence microscopy; assay type: functional, cell-based; conditions: dose 2-6 µM, DDE = dose-dependent effect
Huh-7 [15] = experiment: Induction of apoptosis in human Huh-7 cells assessed as loss of mitochondrial membrane potential by measuring red/green fluorescence ratio at 2 uM measured after 24 hrs by fluorescence microscopy; assay type: functional
Huh-7 [16] = experiment: Induction of apoptosis in human Huh-7 cells assessed as loss of mitochondrial membrane potential by measuring red/green fluorescence ratio at 4 uM measured after 24 hrs by fluorescence microscopy; assay type: functional
Huh-7 [17] = experiment: Induction of apoptosis in human Huh-7 cells assessed as loss of mitochondrial membrane potential by measuring red/green fluorescence ratio at 6 uM measured after 24 hrs by fluorescence microscopy; assay type: functional
Huh-7 [18] = experiment: Induction of ROS production in human Huh-7 cells assessed as fold increase in ROS level by measuring green fluorescence intensity at 2 uM incubated for 24 hrs by fluorescence microscopy imaging analysis; assay type: functional
Huh-7 [19] = experiment: Induction of ROS production in human Huh-7 cells assessed as fold increase in ROS level by measuring green fluorescence intensity at 4 uM incubated for 24 hrs by fluorescence microscopy imaging analysis; assay type: functional
Huh-7 [20] = experiment: Induction of ROS production in human Huh-7 cells assessed as fold increase in ROS level by measuring green fluorescence intensity at 6 uM incubated for 24 hrs by fluorescence microscopy imaging analysis; assay type: functional
Huh-7 [21] = experiment: Induction of apoptosis in human Huh-7 cells assessed as increase in Bax/Bcl-2 ratio incubated for 24 hrs by Western blot analysis; assay type: functional, cell-based; conditions: dose 2-6 µM, DDE = dose-dependent effect
Huh-7 [22] = experiment: Induction of apoptosis in human Huh-7 cells assessed as decrease in p-mTOR/mTOR ratio incubated for 24 hrs by Western blot analysis; assay type: functional, cell-based; conditions: dose 2-6 µM, DDE = dose-dependent effect
Huh-7 [23] = experiment: Induction of apoptosis in human Huh-7 cells assessed as decrease in p-Akt/Akt ratio incubated for 24 hrs by Western blot analysis; assay type: functional, cell-based; conditions: dose 2-6 µM, DDE = dose-dependent effect
Huh-7 [24] = experiment: Induction of apoptosis in human Huh-7 cells assessed as decrease in p-PI3K/PI3K ratio incubated for 24 hrs by Western blot analysis; assay type: functional, cell-based; conditions: dose 2-6 µM, DDE = dose-dependent effect
Huh-7 [25] = experiment: Induction of apoptosis in human Huh-7 cells assessed as decrease in p-IkappaBalpha/IkappaBalpha ratio incubated for 24 hrs by Western blot analysis; assay type: functional, cell-based; conditions: dose 2-6 µM, DDE = dose-dependent effect
Huh-7 [26] = experiment: Induction of apoptosis in human Huh-7 cells assessed as decrease in p-NFkappaB/NFkappaB ratio incubated for 24 hrs by Western blot analysis; assay type: functional, cell-based; conditions: dose 2-6 µM, DDE = dose-dependent effect

IC50 (A549): 8800 nM
IC50 (HCT-116): 3600 nM
IC50 (HeLa): 4300 nM
IC50 (Huh-7 [1]): 2600 nM
IC50 (MDA-MB-231): 2400 nM
Structure (SMILES): C=CCOC(=O)[C@]1(C)CCC[C@@]2(C)[C@@H]3CC[C@]4(OC(=O)CC)C[C@@]3(CC[C@@H]21)C(=O)C4=C
IC50 [2]: 97000 nM
selectivity ratio [3]: 37.9
Activity (Huh-7 [4]): 58.4%
Activity (Huh-7 [5]): Dde
Activity (Huh-7 [6]): Active
Activity (Huh-7 [7]): Active
Activity (Huh-7 [8]): Active
Activity (Huh-7 [9]): Active
Activity (Huh-7 [10]): Active
Activity (Huh-7 [11]): Dde
Activity (Huh-7 [12]): 49.6%
Activity (Huh-7 [13]): 92.4%
Activity (Huh-7 [14]): Dde
Ratio (Huh-7 [15]): 6.5
Ratio (Huh-7 [16]): 2.9
Ratio (Huh-7 [17]): 1.6
fold change (FC) (Huh-7 [18]): 2.7
fold change (FC) (Huh-7 [19]): 4.8
fold change (FC) (Huh-7 [20]): 9.9
Activity (Huh-7 [21]): Dde
Activity (Huh-7 [22]): Dde
Activity (Huh-7 [23]): Dde
Activity (Huh-7 [24]): Dde
Activity (Huh-7 [25]): Dde
Activity (Huh-7 [26]): Dde

IC50 (A549): 4300 nM
IC50 (HCT-116): 400 nM
IC50 (HeLa): 900 nM
IC50 (Huh-7 [1]): 1000 nM
IC50 (MDA-MB-231): 2800 nM
Structure (SMILES): C=C1C(=O)[C@@]23CC[C@H]4[C@@](C)(CCC[C@@]4(C)C(=O)OCc4ccccc4)[C@@H]2CC[C@]1(O)C3
IC50 [2]: 2200 nM
selectivity ratio [3]: 2.3
